Measured values reported in publication PMC7865655, “Click Conjugation of Boron Dipyrromethene (BODIPY) Fluorophores to EGFR-Targeting Linear and Cyclic Peptides” (Molecules, 2021).

Tests used:
HEp2 cells [1] = test: Dark cytotoxicity, CellTiter Blue assay; format: cell-based, human; settings: 24 h incubation, up to 200 µM, darkness
Protocol: The dark toxicity of all compounds was determined in HEp2 cells at concentrations up to 200 µM, using a CellTiter Blue (CTB) assay to determine cell viability. BODIPYs 1 and 2 (lacking peptide) were included in this study for comparison purposes. […] This might be a result of the presence of the indole group, since it is a known pharmacophore and the basis of many drugs, such as indomethacin [44, 49].
(§1) For cellular studies, commercially available reagents and culture media were purchased from Life Technologies (Carlsbad, CA, USA) and human carcinoma HEp2 (ATCC CCL-23) cells were purchased from the American Type Culture Collection (ATCC) (Manassas, Virginia, USA). HEp2 cells were cultured and maintained at 37 °C under 5% CO2 and 95% humidity in minimum essential media (MEM) supplemented with 10% fetal bovine serum (FBS) and 1% penicillin-streptomycin (P/S).
Stock solutions (32 mM) for compounds 1, 2, 3, 4, and 5 were prepared using 100% DMSO as the solvent. […] Following the incubation period, cell viability was assessed by determining fluorescence intensity at 570/615 nm using a BMG FLUOstar Optima microplate reader (BMG Labtech, Cary, NC, USA). The fluorescence intensity was normalized to 100% for untreated cells and the results are expressed as a percentage of viable cells.

HEp2 cells [2] = test: Phototoxicity (~1 J·cm^−2), CellTiter Blue assay; format: cell-based, human; settings: up to 100 µM, light dose ~1 J·cm^−2, CellTiter Blue
Protocol: In addition to dark toxicity, phototoxicity was assessed for the BODIPYs and their conjugates, under a low light dose of ~1 J·cm^−2 in human carcinoma HEp2 cells using the CTB assay to determine cell viability. Dose-dependent cell survival curves of each compound over the incubation period of 24 h are shown in Figure S20 (Supporting Information). […] Nevertheless, all conjugates are considered to have low phototoxicity in HEp2 cells at the low light dose used in this study.
as §1
HEp2 cells were exposed to working solutions of each compound up to 100 µM (0, 3.125, 6.25, 12.5, 25, 50, and 100 µM) and incubated for 24 h (5% CO2, 95% humidity, 37 °C). The loading medium was removed and the cells were washed with PBS solution. […] Cell viability was assessed as described above.

HT-29 cells = test: Competitive binding of conjugate 5 with cycloL1.1, BODIPY fluorescence; format: cell-based; settings: HT-29 (~78% EGFR expression); conjugate 5 at 50 μM, cyclo(K(N3)larllt) 0.25 to 100 μM, 45 min, 37 °C, PBS; ex 614 / em 648 nm; triplicate
Protocol: In these studies, HT-29 (~78% EGFR expression), DLD-1 (~40% EGFR expression), and LOVO (~6% EGFR expression) were used.
Cells HT-29 (~78% EGFR) DLD-1 (~37% EGFR) and LOVO (~6% EGFR) with high, moderate, and low EGFR expressions, respectively, were used in these studies. About ten thousand cells of each cell line were coated in a 96 well clear bottom tissue culture black plate and incubated overnight at 37 °C with 5% CO2. […] PBS was used for dilution of compounds. The plate was then covered in aluminum foil and incubated at 37 °C with 5% CO2. After 45 min, each well was washed twice with 100 μL of PBS, and fluorescence was determined with a microplate reader using an excitation wavelength of 614 nm and an emission wavelength of 648 nm. Autofluorescence values were subtracted from each well. A plot of concentrations vs. relative fluorescence was plotted. Results in Figure 4 are expressed as ±S.E.

[3] = cited from earlier work
Excerpt: (§2) We have previously reported the conjugation of BODIPYs to the EGFR-L1 peptide via traditional amidation reactions, and nucleophilic additions to isothiocyanato-functionalized fluorophores. Herein we report the use of click chemistry for conjugation of two EGFR-L1-derived peptides bearing an azide N-terminus (cycloL1.1 and L1.5) to alkynyl-functionalized BODIPYs. […] In previous work, we reported the conjugation of this peptide to a porphyrin [19], phthalocyanine, and BODIPY dyes, using either traditional amidation methodologies or nucleophilic addition to isothiocyanato-functionalized fluorophores. […] In order ...

[4] = test system: extracellular domain of EGFR; settings: cited from earlier work; for affinity for EGFR (in words): binding to domain I of the extracellular domain of EGFR
Excerpt: as §2

| Compound | stability in human serum (in words) [3] | affinity for EGFR (in words) [4] | other results |
| --- | --- | --- | --- |
| CCC1=C(C)C2=C(c3ccc(OCc4cn(CCCC[C@H](N)C(=O)N[C@@H](CC(C)C)C(=O)N[C@@H](C)C(=O)N[C@@H](CCCNC(=N)N)C(=O)N[C@@H](CC(C)C)C(=O)N[C@@H](CC(C)C)C(=O)N[C@H](C(N)=O)[C@@H](C)O)nn4)cc3)c3c(C)c(CC)c(C)n3[B-](F)(F)[N+]2=C1C [Conjugate 3, 1,3,5,7-tetramethyl-2,6-diethyl-8-(4-phenoxymethyltriazole K(N3)LARLLT)-BODIPY] |  |  | dark toxicity, ranking in words (HEp2 cells [1]): least toxic; phototoxicity, ranking in words (HEp2 cells [2]): least toxic |
| CC(C)C[C@H]1NC(=O)[C@H](CCCCN=[N+]=[N-])NC(=O)[C@@H]([C@H](C)O)NC(=O)[C@@H](CC(C)C)NC(=O)[C@@H](CC(C)C)NC(=O)[C@@H](CCCNC(=N)N)NC(=O)[C@@H](C)NC1=O [cycloL1.1, cyclo(K(N3)larllt)] | enhanced stability in human serum | high affinity | competitive binding: change of BODIPY fluorescence intensity with added cyclic peptide (HT-29 cells): able to replace conjugate 5 competitively |
| LARLLT [EGFR-L1, EGFR-targeting peptide ligand reported in 2009 by Song et al, reference compound] |  |  | affinity for the extracellular domain of EGFR (in words) ([4]; both in vitro and in vivo): high affinity |
| K(N3)LARLLT [Conjugate L1.5, linear EGFR-L1-derived azido peptide] | enhanced stability in human serum | increased affinity for EGFR compared to the parent peptide |  |
